IC50 data for 19 compounds are collected here from patent US10543212B2, “Substituted amines for treating cardiac diseases” (Cardurion Pharmaceuticals, LLC, priority 2017, dated 2020).

pIC50: −log10 of the molar value. Bounds are passed on as bounds.

The target in this experiment is T1, Full-length, GST-tagged, human CaMKIIδ (Homo sapiens, UniProt Q13557).
T1 construct: Full-Length, Glutathione-S-Transferase(GST)-Tagged, Human CaMKIIδ was purchased from Carna Biosciences; purchased Carna Biosciences 02-111
T1 sequence (Q13557 1-478 isoform Q13557-12): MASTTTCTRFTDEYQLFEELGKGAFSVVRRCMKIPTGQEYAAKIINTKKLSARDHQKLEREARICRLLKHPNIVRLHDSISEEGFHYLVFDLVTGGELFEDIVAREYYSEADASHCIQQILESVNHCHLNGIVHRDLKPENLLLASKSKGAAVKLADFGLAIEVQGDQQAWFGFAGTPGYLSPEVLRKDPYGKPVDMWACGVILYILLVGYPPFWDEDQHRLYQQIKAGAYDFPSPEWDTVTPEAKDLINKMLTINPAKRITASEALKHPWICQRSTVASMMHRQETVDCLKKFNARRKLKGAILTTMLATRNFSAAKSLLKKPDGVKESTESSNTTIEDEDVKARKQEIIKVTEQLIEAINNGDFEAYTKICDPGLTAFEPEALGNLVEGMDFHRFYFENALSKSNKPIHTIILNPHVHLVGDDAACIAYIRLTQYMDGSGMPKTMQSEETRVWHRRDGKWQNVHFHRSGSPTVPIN
The experiment in a line: CaMKIIδ binding assay (TR-FRET with BODIPY-labeled probe ligand). The note with it: CaMKIIδ binding assay, results of Table 2. Summed up:
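TR-FRET probe-displacement binding: 0.5 nM GST-CaMKIIδ with 10 μg/mL calmodulin, 1 mM CaCl2, 0.21 nM Tb-anti-GST Ab and 300 nM BODIPY probe in HEPES pH 7.6 buffer. Eight-point 4-fold dilutions, 1 hr at room temperature. IC50 from logistic fit; 100% inhibition defined by 3 μM parent compound.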
A general note: In TR-FRET formats the signal depends on donor and acceptor labels being close together.
Turning to `COc1cc2c(cc1Nc1ncc(-c3ccc(Cl)c(O[C@@H](C)Cn4cnnn4)c3)cn1)NCC2` [Example 477, (S)-N-(5-(3-((1-(1H-tetrazol-1-yl)propan-2-yl)oxy)-4-chlorophenyl)pyrimidin-2-yl)-5-methoxyindolin-6-amine], the pIC50 was 7.00 to 8.00.

Compound `Cc1cnc(N2CCC(N3CCOCC3)CC2)cc1Nc1ncc(-c2ccc(Cl)c(O[C@@H](C)Cn3cnnn3)c2)cn1` [Example 478, (S)-5-(3-((1-(1H-tetrazol-1-yl)propan-2-yl)oxy)-4-chlorophenyl)-N-(5-methyl-2-(4-morpholinopiperidin-1-yl)pyridin-4-yl)pyrimidin-2-amine] showed a pIC50 of 7.00 to 8.00.

The compound `COc1cc2c(cc1Nc1ncc(-c3ccc(Cl)c(O[C@@H](C)Cn4cnnn4)c3)cn1)CCN(CC(C)=O)C2` [Example 479, (S)-1-(6-((5-(3-((1-(1H-tetrazol-1-yl)propan-2-yl)oxy)-4-chlorophenyl)pyrimidin-2-yl)amino)-7-methoxy-3,4-dihydroisoquinolin-2(1H)-yl)propan-2-one] showed a pIC50 of more than 8.00.

`COc1cc2c(cc1Nc1ncc(-c3ccc(Cl)c(O[C@@H](C)Cn4cnnn4)c3)cn1)CCN(CCO)C2` [Example 480, (S)-2-(6-((5-(3-((1-(1H-tetrazol-1-yl)propan-2-yl)oxy)-4-chlorophenyl)pyrimidin-2-yl)amino)-7-methoxy-3,4-dihydroisoquinolin-2(1H)-yl)ethan-1-ol] showed a pIC50 of more than 8.00.

Regarding `COc1cnc(N2CCC(C)(O)CC2)cc1Nc1ncc(-c2ccc(Cl)c(O[C@@H](C)Cn3cnnn3)c2)cn1` [Example 481, (S)-1-(4-((5-(3-((1-(1H-tetrazol-1-yl)propan-2-yl)oxy)-4-chlorophenyl)pyrimidin-2-yl)amino)-5-methoxypyridin-2-yl)-4-methylpiperidin-4-ol], the pIC50 is 7.00 to 8.00.

Compound `C[C@@H](Cn1cnnn1)Oc1cc(-c2cnc(Nc3cn(C4CCN(C(=O)OC(C)(C)C)CC4)nc3C(F)(F)F)nc2)ccc1Cl` [Example 482, tert-butyl (S)-4-(4-((5-(3-((1-(1H-tetrazol-1-yl)propan-2-yl)oxy)-4-chlorophenyl)pyrimidin-2-yl)amino)-3-(trifluoromethyl)-1H-pyrazol-1-yl)piperidine-1-carboxylate] had a pIC50 of 7.00 to 8.00. For `C[C@@H](Cn1cnnn1)Oc1cc(-c2cnc(Nc3cn(C4CCNCC4)nc3C(F)(F)F)nc2)ccc1Cl` [Example 483, (S)-5-(3-((1-(1H-tetrazol-1-yl)propan-2-yl)oxy)-4-chlorophenyl)-N-(1-(piperidin-4-yl)-3-(trifluoromethyl)-1H-pyrazol-4-yl)pyrimidin-2-amine] the value was more than 8.00; for `C[C@@H](Cn1cnnn1)Oc1cc(-c2cnc(Nc3cn(C4CCN(CC(F)F)CC4)nc3C(F)(F)F)nc2)ccc1Cl` [Example 485, (S)-5-(3-((1-(1H-tetrazol-1-yl)propan-2-yl)oxy)-4-chlorophenyl)-N-(1-(1-(2,2-difluoroethyl)piperidin-4-yl)-3-(trifluoromethyl)-1H-pyrazol-4-yl)pyrimidin-2-amine], 7.00 to 8.00; for `C[C@@H](Cn1cnnn1)Oc1cc(-c2cnc(Nc3cn(C4CCN(CC(F)(F)F)CC4)nc3C(F)(F)F)nc2)ccc1Cl` [Example 486, (S)-5-(3-((1-(1H-tetrazol-1-yl)propan-2-yl)oxy)-4-chlorophenyl)-N-(1-(1-(2,2,2-trifluoroethyl)piperidin-4-yl)-3-(trifluoromethyl)-1H-pyrazol-4-yl)pyrimidin-2-amine], 7.00 to 8.00. `C[C@@H](Cn1cnnn1)Oc1cc(-c2cnc(Nc3cn(C4CCN(C)CC4)nc3C(F)(F)F)nc2)ccc1Cl` [Example 487, (S)-5-(3-((1-(1H-tetrazol-1-yl)propan-2-yl)oxy)-4-chlorophenyl)-N-(1-(1-methylpiperidin-4-yl)-3-(trifluoromethyl)-1H-pyrazol-4-yl)pyrimidin-2-amine] showed a pIC50 of more than 8.00. With `CC(=O)N1CCC(n2cc(Nc3ncc(-c4ccc(Cl)c(O[C@@H](C)Cn5cnnn5)c4)cn3)c(C(F)(F)F)n2)CC1` [Example 488, (S)-1-(4-(4-((5-(3-((1-(1H-tetrazol-1-yl)propan-2-yl)oxy)-4-chlorophenyl)pyrimidin-2-yl)amino)-3-(trifluoromethyl)-1H-pyrazol-1-yl)piperidin-1-yl)ethan-1-one] the figure was more than 8.00; with `C[C@@H](Cn1cnnn1)Oc1cc(-c2cnc(Nc3cn(C4CCN(CC5COC5)CC4)nc3C(F)(F)F)nc2)ccc1Cl` [Example 489, (S)-5-(3-((1-(1H-tetrazol-1-yl)propan-2-yl)oxy)-4-chlorophenyl)-N-(1-(1-(oxetan-3-ylmethyl)piperidin-4-yl)-3-(trifluoromethyl)-1H-pyrazol-4-yl)pyrimidin-2-amine], more than 8.00; with `COc1cc2c(cc1Nc1ncc(-c3ccc(Cl)c(O[C@@H](C)Cn4cnnn4)c3)cn1)CCN(CC(F)(F)F)C2` [Example 490, (S)-N-(5-(3-((1-(1H-tetrazol-1-yl)propan-2-yl)oxy)-4-chlorophenyl)pyrimidin-2-yl)-7-methoxy-2-(2,2,2-trifluoroethyl)-1,2,3,4-tetrahydroisoquinolin-6-amine], 7.00 to 8.00. In turn, `Cc1ccc(N2CCC(N3CCOCC3)CC2)cc1Nc1ncc(-c2ccc(Cl)c(O[C@@H](C)Cn3cnnn3)c2)cn1` [Example 491] showed a pIC50 of more than 8.00. On to `COCCN1CCc2cc(Nc3ncc(-c4ccc(Cl)c(O[C@@H](C)Cn5cnnn5)c4)cn3)c(OC)cc2C1` [Example 492, (S)-N-(5-(3-((1-(1H-tetrazol-1-yl)propan-2-yl)oxy)-4-chlorophenyl)pyrimidin-2-yl)-7-methoxy-2-(2-methoxyethyl)-1,2,3,4-tetrahydroisoquinolin-6-amine], for which the pIC50 was more than 8.00. For `COc1cc(C2CCCN(C3COC3)C2)ccc1Nc1ncc(-c2ccc(C#N)c(O[C@@H](C)Cn3cnnn3)c2)cn1` (stereo partly drawn) [Example 493, 2-(((S)-1-(1H-tetrazol-1-yl)propan-2-yl)oxy)-4-(2-((2-methoxy-4-(1-(oxetan-3-yl)piperidin-3-yl)phenyl)amino)pyrimidin-5-yl)benzonitrile] the value was more than 8.00. For `COc1cc(C2CCCN(C3COC3)C2)ccc1Nc1ncc(-c2ccc(Cl)c(O[C@@H](C)Cn3cnnn3)c2)cn1` (stereo partly drawn) [Example 494, 5-(3-(((S)-1-(1H-tetrazol-1-yl)propan-2-yl)oxy)-4-chlorophenyl)-N-(2-methoxy-4-(1-(oxetan-3-yl)piperidin-3-yl)phenyl)pyrimidin-2-amine] the value was more than 8.00. With `COc1ccc(N2CCC(N3CCOCC3)CC2)cc1Nc1ncc(-c2ccc(C#N)c(O[C@@H](C)COC(F)F)c2)cn1` [Example 495, (S)-2-((1-(difluoromethoxy)propan-2-yl)oxy)-4-(2-((2-methoxy-5-(4-morpholinopiperidin-1-yl)phenyl)amino)pyrimidin-5-yl)benzonitrile], the pIC50 was 7.00 to 8.00.

Take `COc1cc2cc[nH]c2cc1Nc1ncc(-c2ccc(Cl)c(O[C@@H](C)Cn3cnnn3)c2)cn1` [Example 496, (S)-N-(5-(3-((1-(1H-tetrazol-1-yl)propan-2-yl)oxy)-4-chlorophenyl)pyrimidin-2-yl)-5-methoxy-1H-indol-6-amine]: the pIC50 is 7.00 to 8.00.

What is called pIC50 is the IC50 on a negative log10 scale, so that one unit is a factor of ten. Low readings indicate a large IC50, high ones a small IC50.
